Reference: patent US20050282818A1, “Ubiquitin ligase inhibitors” (Rigel Pharmaceuticals, Inc., priority 2004, published 2005)

Experiments:
TRAF6/Uev1A/Ubc13 = molecular target: T1, TRAF6/Uev1A/Ubc13 (Homo sapiens, UniProt Q9Y4K3); test: TRAF6/Uev1A/Ubc13 plate-based ubiquitin ligase assay; format: biochemical
T1 sequence (Q9Y4K3 1-522): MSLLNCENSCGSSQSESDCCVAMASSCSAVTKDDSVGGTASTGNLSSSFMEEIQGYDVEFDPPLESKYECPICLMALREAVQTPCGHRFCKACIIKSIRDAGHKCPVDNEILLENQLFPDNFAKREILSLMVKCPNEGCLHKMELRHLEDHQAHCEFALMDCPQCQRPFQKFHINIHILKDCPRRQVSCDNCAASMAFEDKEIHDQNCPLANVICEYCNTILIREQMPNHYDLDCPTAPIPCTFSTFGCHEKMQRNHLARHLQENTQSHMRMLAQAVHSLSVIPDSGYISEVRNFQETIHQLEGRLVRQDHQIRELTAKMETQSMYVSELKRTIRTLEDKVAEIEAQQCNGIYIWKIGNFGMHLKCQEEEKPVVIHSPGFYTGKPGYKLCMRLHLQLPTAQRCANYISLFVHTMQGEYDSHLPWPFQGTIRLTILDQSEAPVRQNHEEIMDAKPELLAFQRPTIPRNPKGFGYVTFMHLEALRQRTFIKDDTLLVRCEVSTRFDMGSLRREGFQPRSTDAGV
Summary of the method: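 Ligase activity was read as luminescence from anti-Flag/HRP detection of Flag-ubiquitin bound to casein-blocked Ni-plates alongside His-ubiquitin after a 1 h room-temperature reaction. Buffer: 62.5 mM Tris pH 7.5, 6.25 mM MgCl2, 1.0 mM DTT, 2 μM ATP; E1, Uev1a/Ubc13 and TRAF6 added last to start. IC50s derived across compound concentrations.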

[1] = test system: ICAM-1 expression in A549 cells; test: ICAM assay (IL-1 induced ICAM-1/CD54 expression in A549 cells); format: cell-based, human; conditions: Homo sapiens, A549, ICAM assay
Summary of the method: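 A549 cells, 10,000/well, preincubated with compound 1 h at 37° C, then stimulated with IL-1 (4 μl of 25 ng/ml added) for 4 h. Surface ICAM-1 detected by anti-CD54 plus anti-mouse IgG staining for 1 h, luminescent read-out after PBS washes.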

APC11/APC2 = APC11/APC2 (Homo sapiens, UniProt Q9NYG5+Q9UJX6); test: APC-11/APC-2 ligase assay (APC auto ubiquitination); format: biochemical; conditions: APC assay
Chain of APC11/APC2 (Q9NYG5 whole entry): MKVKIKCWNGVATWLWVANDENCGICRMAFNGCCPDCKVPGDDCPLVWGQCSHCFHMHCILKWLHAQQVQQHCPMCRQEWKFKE
Chain of APC11/APC2 (Q9UJX6 whole entry): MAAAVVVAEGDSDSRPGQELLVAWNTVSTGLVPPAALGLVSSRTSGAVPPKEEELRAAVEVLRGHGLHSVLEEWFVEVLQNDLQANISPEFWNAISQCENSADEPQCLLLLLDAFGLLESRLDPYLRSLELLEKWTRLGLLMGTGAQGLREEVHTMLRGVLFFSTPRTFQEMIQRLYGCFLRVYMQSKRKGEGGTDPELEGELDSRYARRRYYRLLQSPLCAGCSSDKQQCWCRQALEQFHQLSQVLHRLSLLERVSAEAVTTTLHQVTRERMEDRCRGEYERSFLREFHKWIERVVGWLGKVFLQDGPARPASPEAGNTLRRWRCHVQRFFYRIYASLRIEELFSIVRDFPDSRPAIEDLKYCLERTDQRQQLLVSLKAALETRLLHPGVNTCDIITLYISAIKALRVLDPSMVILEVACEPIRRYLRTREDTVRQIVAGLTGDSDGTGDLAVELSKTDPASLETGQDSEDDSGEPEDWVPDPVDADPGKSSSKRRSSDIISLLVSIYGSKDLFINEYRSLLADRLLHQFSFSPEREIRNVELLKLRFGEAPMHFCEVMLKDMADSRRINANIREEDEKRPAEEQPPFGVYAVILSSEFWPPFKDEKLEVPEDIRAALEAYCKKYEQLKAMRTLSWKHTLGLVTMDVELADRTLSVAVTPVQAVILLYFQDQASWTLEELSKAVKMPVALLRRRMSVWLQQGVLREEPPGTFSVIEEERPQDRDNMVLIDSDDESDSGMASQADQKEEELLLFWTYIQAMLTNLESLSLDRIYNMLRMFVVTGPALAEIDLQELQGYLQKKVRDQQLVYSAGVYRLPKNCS
Summary of the method: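 His-tagged APC was captured on nickel plates with human E1 (5 ng/well), UbcH5c (20 ng/well), APC (100 ng/well) and Flag-ubiquitin (100 ng/well) in a Tris pH 7.6 reaction buffer containing 2.5 mM ATP, for 1 hour at room temperature. Read-out was anti-Flag/HRP chemiluminescence. IC50 was set against a DMSO control, typically from 6 or 8 concentrations.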

Row | SMILES | IC50 (TRAF6/Uev1A/Ubc13) | IC50 [1] | IC50 (APC11/APC2)
1 | O=S(=O)(Nc1c(F)cccc1F)c1c(Cl)cc(Cl)c2nonc12 [compound 414, 5,7-dichloro-N-(2,6-difluorophenyl)-2,1,3-benzoxadiazole-4-sulfonamide] | 1 to 20 µM | 1 to 20 µM | 1 to 20 µM
2 | O=S(=O)(Nc1cccc2ccccc12)c1c(Cl)cc(Cl)c2nonc12 [compound 416, 5,7-dichloro-N-(naphthalen-1-yl)-2,1,3-benzoxadiazole-4-sulfonamide] | 1 to 20 µM | 1 to 20 µM | 1 to 20 µM
3 | O=S(=O)(Nc1cccc2ccccc12)c1c(Cl)cc(Nc2cccc3ccccc23)c2nonc12 [compound 417, 5-chloro-N-(naphthalen-1-yl)-7-(naphthalen-1-ylamino)-2,1,3-benzoxadiazole-4-sulfonamide] | 1 to 20 µM | 1 to 20 µM | 1 to 20 µM
4 | FC(F)(F)c1ccc(-c2cc(-c3ccc(C(F)(F)F)cc3)c3nonc3c2)cc1 [compound 420, 4,6-bis(4-[trifluoromethyl]phenyl)-2,1,3-benzoxadiazole] | ≥ 20 µM | ≥ 20 µM | ≥ 20 µM
5 | COc1cccc(-c2cc(-c3cccc(OC)c3)c3nonc3c2)c1 [compound 421, 4,6-bis(3-methoxyphenyl)-2,1,3-benzoxadiazole] | ≥ 20 µM | ≥ 20 µM | ≥ 20 µM
6 | CC(C)(C)c1ccc(-c2cc(-c3ccc(C(C)(C)C)cc3)c3nonc3c2)cc1 [compound 422, 4,6-bis(4-t-butylphenyl)-2,1,3-benzoxadiazole] | ≥ 20 µM | ≥ 20 µM | ≥ 20 µM
7 | Cc1cc(C)cc(-c2ccc(N)c3nonc23)c1 [compound 426, 7-(3,5-dimethylphenyl)-2,1,3-benzoxadiazol-4-amine] | ≥ 20 µM | ≥ 20 µM | ≥ 20 µM
8 | O=C(Nc1ccc([N+](=O)[O-])c2nonc12)c1cccc(F)c1F [compound 427, 2,3-difluoro-N-(7-nitro-2,1,3-benzoxadiazol-4-yl)benzamide] | ≥ 20 µM | 1 to 20 µM | ≥ 20 µM
9 | O=[N+]([O-])c1c(N2CCCCC2)cc(-c2cc(F)cc(F)c2)c2nonc12 [compound 428, 7-(3,5-difluorophenyl)-4-nitro-5-(piperidin-1-yl)-2,1,3-benzoxadiazole] | ≥ 20 µM | ≥ 20 µM | ≥ 20 µM
10 | O=[N+]([O-])c1c(N2CCCCC2)cc(-c2cccc(C(F)(F)F)c2)c2nonc12 [compound 429, 7-(3-[trifluoromethyl]phenyl)-4-nitro-5-(piperidin-1-yl)-2,1,3-benzoxadiazole] | ≥ 20 µM | ≥ 20 µM | ≥ 20 µM
11 | Oc1ccc2c(c1)cc(Cl)c1nonc12 [compound 430, 4-chloronaphtho[2,1-c][1,2,5]oxadiazol-7-ol] | ≥ 20 µM | ≥ 20 µM | ≥ 20 µM
12 | CC(C)(C)c1ccc(-c2cc(N3CCCCC3)c([N+](=O)[O-])c3nonc23)cc1 [compound 433, 7-(4-t-butylphenyl)-4-nitro-5-(piperidin-1-yl)-2,1,3-benzoxadiazole] | ≥ 20 µM | ≥ 20 µM | ≥ 20 µM
13 | COc1cccc(-c2cc(N3CCCCC3)c([N+](=O)[O-])c3nonc23)c1 [compound 434, 7-(3-methoxyphenyl)-4-nitro-5-(piperidin-1-yl)-2,1,3-benzoxadiazole] | ≥ 20 µM | ≥ 20 µM | ≥ 20 µM
14 | CC(=O)Nc1ccc(-c2cc(C)cc(C)c2)c2nonc12 [compound 436, N-(7-[3,5-dimethylphenyl]-2,1,3-benzoxadiazol-4-yl)acetamide] | ≥ 20 µM | ≥ 20 µM | ≥ 20 µM
15 | O=[N+]([O-])c1ccc(-c2ccccc2F)c2nonc12 [compound 437, 7-(2-fluorophenyl)-4-nitro-2,1,3-benzoxadiazole] | ≥ 20 µM | 1 to 20 µM | 1 to 20 µM
16 | COCCNS(=O)(=O)c1ccc(Cl)c2nonc12 [compound 438, 7-chloro-N-(2-methoxyethyl)-2,1,3-benzoxadiazole-4-sulfonamide] | ≥ 20 µM | ≥ 20 µM | ≥ 20 µM
17 | Cc1ccccc1-c1ccc([N+](=O)[O-])c2nonc12 [compound 439, 4-nitro-7-o-tolyl-2,1,3-benzoxadiazole] | ≥ 20 µM | 1 to 20 µM | ≥ 20 µM
18 | O=[N+]([O-])c1ccc(-c2ccccc2)c2nonc12 [compound 440, 4-nitro-7-phenyl-2,1,3-benzoxadiazole] | ≥ 20 µM | ≥ 20 µM | 1 to 20 µM
19 | CC(=O)c1ccc(-c2ccc([N+](=O)[O-])c3nonc23)cc1 [compound 441, 1-(4-[7-nitro-2,1,3-benzoxadiazol-4-yl]phenyl)ethanone] | 1 to 20 µM | 1 to 20 µM | 1 to 20 µM
20 | O=[N+]([O-])c1ccc(-c2ccc(F)cc2)c2nonc12 [compound 442, 4-nitro-7-(4-fluorophenyl)-2,1,3-benzoxadiazole] | 1 to 20 µM | 1 to 20 µM | ≥ 20 µM
21 | CC(=O)c1cccc(-c2ccc([N+](=O)[O-])c3nonc23)c1 [compound 443, 1-(3-[7-nitro-2,1,3-benzoxadiazol-4-yl]phenyl)ethanone] | 1 to 20 µM | 1 to 20 µM | 1 to 20 µM
22 | O=S(=O)(NCc1ccccn1)c1ccc(Cl)c2nonc12 [compound 446, 7-chloro-N-(pyridin-2-ylmethyl)-2,1,3-benzoxadiazole-4-sulfonamide] | ≥ 20 µM | 1 to 20 µM | ≥ 20 µM

Results, then the molecule that gave them:

Row | IC50 (TRAF6/Uev1A/Ubc13) | IC50 [1] | IC50 (APC11/APC2) | SMILES
23 | 1 to 20 µM | 1 to 20 µM | 1 to 20 µM | O=S(=O)(Nc1cccc2ccccc12)c1c(Nc2cccc3ccccc23)cc(Cl)c2nonc12 [compound 415, 7-chloro-N-(naphthalen-1-yl)-5-(naphthalen-1-ylamino)-2,1,3-benzoxadiazole-4-sulfonamide]
24 | ≥ 20 µM | ≥ 20 µM | ≥ 20 µM | FC(F)(F)c1cccc(-c2cc(-c3cccc(C(F)(F)F)c3)c3nonc3c2)c1 [compound 418, 4,6-bis(3-[trifluoromethyl]phenyl)-2,1,3-benzoxadiazole]
25 | ≥ 20 µM | ≥ 20 µM | ≥ 20 µM | Cc1cccc(-c2cc(-c3cccc(C)c3)c3nonc3c2)c1 [compound 419, 4,6-bis(3-methylphenyl)-2,1,3-benzoxadiazole]
26 | ≥ 20 µM | ≥ 20 µM | ≥ 20 µM | COc1ccccc1-c1cc(-c2ccccc2OC)c2nonc2c1 [compound 423, 4,6-bis(2-methoxyphenyl)-2,1,3-benzoxadiazole]
27 | ≥ 20 µM | ≥ 20 µM | ≥ 20 µM | O=S(=O)(Nc1ccccc1Br)c1ccc(Cl)c2nonc12 [compound 424, N-(2-bromophenyl)-7-chloro-2,1,3-benzoxadiazole-4-sulfonamide]
28 | ≥ 20 µM | ≥ 20 µM | ≥ 20 µM | Oc1ccc2c(c1)cc(Sc1cccc3cccnc13)c1nonc12 [compound 425, 4-(quinolin-8-ylthio)naphtho[2,1-c][1,2,5]oxadiazol-7-ol]
29 | ≥ 20 µM | ≥ 20 µM | ≥ 20 µM | O=[N+]([O-])c1c(N2CCCCC2)cc(-c2ccc(C(F)(F)F)cc2)c2nonc12 [compound 431, 7-(4-[trifluoromethyl]phenyl)-4-nitro-5-(piperidin-1-yl)-2,1,3-benzoxadiazole]
30 | ≥ 20 µM | ≥ 20 µM | ≥ 20 µM | Cc1cccc(-c2cc(N3CCCCC3)c([N+](=O)[O-])c3nonc23)c1 [compound 432, 7-(3-methylphenyl)-4-nitro-5-(piperidin-1-yl)-2,1,3-benzoxadiazole]
31 | ≥ 20 µM | ≥ 20 µM | ≥ 20 µM | CC(C)(C)c1ccc(-c2ccc(N)c3nonc23)cc1 [compound 435, 7-(4-t-butylphenyl)-2,1,3-benzoxadiazol-4-amine]
32 | 1 to 20 µM | 1 to 20 µM | 1 to 20 µM | O=[N+]([O-])c1cccc(-c2ccc([N+](=O)[O-])c3nonc23)c1 [compound 444, 4-nitro-7-(3-nitrophenyl)-2,1,3-benzoxadiazole]
33 | ≥ 20 µM | ≥ 20 µM | ≥ 20 µM | O=S(=O)(NCCCc1ccccc1)c1ccc(Cl)c2nonc12 [compound 445, 7-chloro-N-(3-phenylpropyl)-2,1,3-benzoxadiazole-4-sulfonamide]
